Assay results: PubChem BioAssay AID1259407 (Chemical Carcinogenesis Research Information System (CCRIS), 2018)
Activity calls are given as the source filed them. The rule behind the calls is not given here.

System: CCRIS mutagenicity, Ames/micronucleus/aberration tests
Assay: CCRIS mutagenicity studies
[1] = Test System: AMES SALMONELLA TYPHIMURIUM, Strain/Indicator: TA98, Metabolic Activation: NONE, Method: PREINCUBATION
[2] = Test System: AMES SALMONELLA TYPHIMURIUM, Strain/Indicator: TA98, Metabolic Activation: S-9, Method: PREINCUBATION
[3] = Test System: AMES SALMONELLA TYPHIMURIUM, Strain/Indicator: TA100, Metabolic Activation: NONE, Method: PREINCUBATION
[4] = Test System: AMES SALMONELLA TYPHIMURIUM, Strain/Indicator: TA100, Metabolic Activation: S-9, Method: PREINCUBATION
[5] = Test System: AMES SALMONELLA TYPHIMURIUM, Strain/Indicator: TA102, Metabolic Activation: NONE, Method: PREINCUBATION
[6] = Test System: AMES SALMONELLA TYPHIMURIUM, Strain/Indicator: TA98, Metabolic Activation: NONE, Method: STANDARD PLATE
[7] = Test System: AMES SALMONELLA TYPHIMURIUM, Strain/Indicator: TA100, Metabolic Activation: NONE, Method: STANDARD PLATE
[8] = Test System: AMES SALMONELLA TYPHIMURIUM, Strain/Indicator: TA1537, Metabolic Activation: NONE, Method: STANDARD PLATE
[9] = Test System: AMES SALMONELLA TYPHIMURIUM, Strain/Indicator: TA1535, Metabolic Activation: NONE, Method: PREINCUBATION
[10] = Test System: E.COLI, Strain/Indicator: WP2UVRA/PKM101, Metabolic Activation: NONE, Method: PREINCUBATION

Measured: mutagenic call

O=C1CN(CCN2CC(=O)N(CN3CCOCC3)C(=O)C2)CC(=O)N1CN1CCOCC1
active: [1] active; positive | [5] active; positive
inactive: Test System: AMES SALMONELLA TYPHIMURIUM, Strain/Indicator: TA97, Metabolic Activation: NONE, Method: PREINCUBATION inactive; negative | Test System: AMES SALMONELLA TYPHIMURIUM, Strain/Indicator: TA97, Metabolic Activation: S-9, Method: PREINCUBATION inactive; negative | [2] inactive; negative | [3] inactive; negative | [4] inactive; negative | Test System: AMES SALMONELLA TYPHIMURIUM, Strain/Indicator: TA102, Metabolic Activation: S-9, Method: PREINCUBATION inactive; negative

CCCCN(N=O)C(CCC)OC(C)=O (stereo unspecified)
active: Test System: UDS RAT UROTHELIAL CELLS, Strain/Indicator: THY INCORP, Metabolic Activation: NONE active; positive

O=S(O)(O)=S
inactive: [6] inactive; negative | Test System: AMES SALMONELLA TYPHIMURIUM, Strain/Indicator: TA98, Metabolic Activation: RAT, LIVER, S-9, AROCLOR 1254, Method: STANDARD PLATE inactive; negative | [7] inactive; negative | Test System: AMES SALMONELLA TYPHIMURIUM, Strain/Indicator: TA100, Metabolic Activation: RAT, LIVER, S-9, AROCLOR 1254, Method: STANDARD PLATE inactive; negative | Test System: AMES SALMONELLA TYPHIMURIUM, Strain/Indicator: TA1535, Metabolic Activation: NONE, Method: STANDARD PLATE inactive; negative | Test System: AMES SALMONELLA TYPHIMURIUM, Strain/Indicator: TA1535, Metabolic Activation: RAT, LIVER, S-9, AROCLOR 1254, Method: STANDARD PLATE inactive; negative | [8] inactive; negative | Test System: AMES SALMONELLA TYPHIMURIUM, Strain/Indicator: TA1537, Metabolic Activation: RAT, LIVER, S-9, AROCLOR 1254, Method: STANDARD PLATE inactive; negative | Test System: AMES SALMONELLA TYPHIMURIUM, Strain/Indicator: TA1538, Metabolic Activation: NONE, Method: STANDARD PLATE inactive; negative | Test System: AMES SALMONELLA TYPHIMURIUM, Strain/Indicator: TA1538, Metabolic Activation: RAT, LIVER, S-9, AROCLOR 1254, Method: STANDARD PLATE inactive; negative | Test System: E. COLI, Strain/Indicator: WP2, Metabolic Activation: NONE, Method: STANDARD PLATE inactive; negative | Test System: E. COLI, Strain/Indicator: WP2, Metabolic Activation: RAT, LIVER, S-9, AROCLOR 1254, Method: STANDARD PLATE inactive; negative

O=C(O)c1ccc(O)cc1
inactive: [1] inactive; negative | [6] inactive; negative | Test System: AMES SALMONELLA TYPHIMURIUM, Strain/Indicator: TA98, Metabolic Activation: RAT LIVER S-9, PHENOBARBITAL AND BETA-NAPHTHOFLAVONE, Method: PREINCUBATION inactive; negative | [3] inactive; negative | [7] inactive; negative | Test System: AMES SALMONELLA TYPHIMURIUM, Strain/Indicator: TA100, Metabolic Activation: RAT LIVER S-9, PHENOBARBITAL AND BETA-NAPHTHOFLAVONE, Method: PREINCUBATION inactive; negative | [5] inactive; negative | Test System: AMES SALMONELLA TYPHIMURIUM, Strain/Indicator: TA102, Metabolic Activation: RAT LIVER S-9, PHENOBARBITAL AND BETA-NAPHTHOFLAVONE, Method: PREINCUBATION inactive; negative | Test System: AMES SALMONELLA TYPHIMURIUM, Strain/Indicator: TA104, Metabolic Activation: NONE, Method: PREINCUBATION inactive; negative | Test System: AMES SALMONELLA TYPHIMURIUM, Strain/Indicator: TA104, Metabolic Activation: RAT LIVER S-9, PHENOBARBITAL AND BETA-NAPHTHOFLAVONE, Method: PREINCUBATION inactive; negative | [9] inactive; negative | Test System: AMES SALMONELLA TYPHIMURIUM, Strain/Indicator: TA1535, Metabolic Activation: RAT LIVER S-9, PHENOBARBITAL AND BETA-NAPHTHOFLAVONE, Method: PREINCUBATION inactive; negative | Test System: AMES SALMONELLA TYPHIMURIUM, Strain/Indicator: TA1537, Metabolic Activation: NONE, Method: PREINCUBATION inactive; negative | Test System: AMES SALMONELLA TYPHIMURIUM, Strain/Indicator: TA1537, Metabolic Activation: RAT LIVER S-9, PHENOBARBITAL AND BETA-NAPHTHOFLAVONE, Method: PREINCUBATION inactive; negative | Test System: E. COLI, Strain/Indicator: CM561 LEXA, Metabolic Activation: NONE, Method: STANDARD PLATE inactive; negative | Test System: E. COLI, Strain/Indicator: CM611 UVRA/LEXA, Metabolic Activation: NONE, Method: STANDARD PLATE inactive; negative | Test System: E. COLI, Strain/Indicator: WP2 UVRA, Metabolic Activation: NONE, Method: STANDARD PLATE inactive; negative | [10] inactive; negative | Test System: E.COLI, Strain/Indicator: WP2UVRA/PKM101, Metabolic Activation: RAT LIVER S-9, PHENOBARBITAL AND BETA-NAPHTHOFLAVONE, Method: PREINCUBATION inactive; negative | Test System: E.COLI, Strain/Indicator: WP2UVRA, Metabolic Activation: NONE, Method: PREINCUBATION inactive; negative | Test System: E.COLI, Strain/Indicator: WP2UVRA, Metabolic Activation: RAT LIVER S-9, PHENOBARBITAL AND BETA-NAPHTHOFLAVONE, Method: PREINCUBATION inactive; negative

COc1c(OC)c2occc2c2oc(=O)ccc12
inactive: [6] inactive; negative | Test System: AMES SALMONELLA TYPHIMURIUM, Strain/Indicator: TA98, Metabolic Activation: RAT, LIVER, S-9, PHENOBARBITAL, Method: STANDARD PLATE inactive; negative

CC(=O)C(=O)c1ccccc1
inactive: [7] inactive; negative

CN(C)CCNC(=O)c1cccc2nc3ccccc3nc12
active: [8] active; positive

O=[N+]([O-])c1ccccc1SS/C(Cl)=C(\Cl)C(Cl)=C(Cl)Cl
active: Test System: AMES SALMONELLA TYPHIMURIUM, Strain/Indicator: TA100(DNP6), Metabolic Activation: NONE, Method: PREINCUBATION active; positive | Test System: AMES SALMONELLA TYPHIMURIUM, Strain/Indicator: TA100(NR), Metabolic Activation: NONE, Method: PREINCUBATION active; positive

C/C=C/C=C/C
inactive: [1] inactive; negative | [2] inactive; negative | [3] inactive; negative | [4] inactive; negative | [9] inactive; negative | Test System: AMES SALMONELLA TYPHIMURIUM, Strain/Indicator: TA1535, Metabolic Activation: S-9, Method: PREINCUBATION inactive; negative | [10] inactive; negative | Test System: E.COLI, Strain/Indicator: WP2UVRA/PKM101, Metabolic Activation: S-9, Method: PREINCUBATION inactive; negative
